# Experimental data published in patent US20230002324A1, “NAPHTHOQUINONE DERIVATIVES FOR TREATMENT OF OXIDATIVE STRESS DISORDERS” (PTC THERAPEUTICS, INC., priority 2019, published 2023).
# Like-named read-outs stand apart in the source and are kept apart here.
# How the values were obtained:
# Type in all cases: cell-based
# [1] = test system: Q7 cells (ST HDH Q7/7; immortalized mouse striatal cells); test: Q7 RSL3 challenge cell survival (rescue) assay; settings: 18 h, read-out: Q7 RSL3 Survival EC50
# Text: (§1) In neuronal cells excess extracellular glutamate inhibits the cystine/glutamate antiporter leading to intracellular cysteine depletion, GSH depletion, reactive oxygen species (ROS) production and cell death, a phenomenon termed oxidative glutamate toxicity, oxytosis, or ferroptosis. […] Q7 cells (ST HDH Q7/7; immortalized mouse striatal cells) challenged with cystine-free media or the selective, irreversible GPX4 inhibitor, methyl (1S,3R)-2-(2-chloroacetyl)-1-(4-(methoxycarbonyl)phenyl)-2,3,4,9-tetrahydro-1H-pyrido[3,4-b]indole-3-carboxylate (hereafter referred to as RSL3), recapitulate this phenotype, as do normal human fibroblasts (NHF) challenged with RSL3. An initial screen was performed to identify compounds effective in rescuing Q7 and/or NHF cells from death resulting from cystine deprivation or RSL3 challenge. This method is further described in Yonezawa et al., J. Neurochem 67, 566-573 (1996), Li et al., J Neurosci., 23, 5816-5826 (2003), Yang and Stockwell, Chem Biol., 15: 234-45 (2008), and Yang et al., Cell 156, 317-331 (2014). See also Hinman A, Holst C R, Latham J C, et al. Vitamin E hydroquinone is an endogenous regulator of ferroptosis via redox control of 15-lipoxygenase. PLoS One. 2018; 13(8):e0201369. Published 2018 Aug. 15. doi:10.1371/journal.pone.0201369; and Kahn-Kirby A H, Amagata A, Maeder C I, et al. Targeting ferroptosis: A novel therapeutic strategy for the treatment of mitochondrial disease-related epilepsy. PLoS One. 2019; 14(3):e0214250. Published 2019 Mar. 28. doi:10.1371/journal.pone.0214250.
# (§2) DMEM (Catalog no. 11995-040), DMEM without Cystine (Catalog no. 21013-024), DMEM without Glucose (Catalog A1443001), PBS (Phosphate buffered saline), Penicillin-streptomycin mix, L-Glutamine, Glucose, Phenol Red, and Pyruvate were purchased from ThermoFisher Scientific (Gibco). Fetal Bovine Serum was obtained from Mediatech, Inc., or Sigma Aldrich. Mouse striatum derived ST HDH Q7/7 (Q7) and normal human skin fibroblast (NHF, product number GM21811) cells were obtained from the Coriell Institute. Methionine and Vitamin K2 were purchased from Sigma Aldrich. RSL3 was synthesized as previously described (see e.g. US Patent Publication US2010/0081654). Cell Titer Glo 2.0 was purchased from Promega. Q7 cell culture medium (Q7 growth medium) was made by combining 50 mL Fetal Bovine Serum, 100 U/mL penicillin, and 100 microgram/mL streptomycin; DMEM was added to make the volume up to 500 mL. Assay medium for the Cystine Deprivation assay was prepared by combining 50 mL Fetal Bovine Serum, 100 U/mL penicillin, 100 microgram/mL streptomycin, 4 mM L-Glutamine, 1 mM Pyruvate and 30 mg/L Methionine; DMEM without Cystine was added to make the volume up to 500 mL. NHF cell culture medium (NHF growth medium) was made by combining 50 mL Fetal Bovine Serum, 100 U/mL penicillin, 100 microgram/mL streptomycin, 2.8 mL 20% Glucose solution (final concentration 6 mM), L-glutamine (final concentration 2 mM), phenol red (final concentration 15 mg/L); DMEM without Glucose was added to make the volume up to 500 mL. Assay medium for the RSL3 challenge assay was identical to Growth medium. While not in use during the course of the experiments, these solutions were stored at 4° C. The cells were grown in 150-cm^2 tissue culture-treated flasks. Every third or fourth day, the cells were sub-cultured by trypsinization and re-seeded at a cell density of 600,000 (Q7) or 300,000 (NHF) cells per flask.
# (§3) Q7 or NHF cells were cultured routinely as described herein. For 384-well cell survival assays, cells were seeded in clear bottom, black wall 384-well tissue culture-treated polystyrene plates by re-suspending a cell suspension at a density of 50,000 cells/mL in growth medium, then dispensing 60 microliters of cell suspension per well using either an electronic multichannel pipette or a Multidrop™ Combi Reagent Dispenser (ThermoFisher Scientific), corresponding to 3,000 cells/well. […]
# [2] = test system: normal human fibroblasts (NHF, GM21811); test: NHF GM21811 RSL3 challenge cell survival (rescue) assay; settings: Fibroblast, 48 h, read-out: NHF GM21811 RSL3 Survival EC50
# Text: as §1, §2, §3
# [3] = test system: Q7 cells (ST HDH Q7/7; immortalized mouse striatal cells); test: Q7 Cystine Deprivation cell survival (rescue) assay; settings: Q7 cells, cystine-free medium, 18 h, Cell Titer Glo, 50% relative viability vs Vitamin K2 (1 micromolar), read-out: Q7 Cystine Deprivation Survival EC50
# Method in brief: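 Cells were seeded at 3,000/well and allowed to attach for 5 h at 33 °C. Wells were then washed twice with PBS and switched to cystine-free DMEM containing FBS, 4 mM L-glutamine, 1 mM pyruvate and 30 mg/L methionine to induce ferroptotic death. Compounds were scored for survival rescue.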
# [4] = Q7 cells, RSL3 2 micromolar, Cell Titer Glo
# [5] = NHF cells, RSL3 2 micromolar, Cell Titer Glo
SMILES,"EC50 [1, 4] [nM]","EC50 [2, 5] [nM]",EC50 [3] [nM],EC50 [1] [nM],EC50 [2] [nM]
"[2H]C([2H])(C1=C(C)C(=O)c2ccccc2C1=O)c1ccc(C(F)(F)F)cn1 [Example 21, 2-methyl-3-((5-(trifluoromethyl)pyridin-2-yl)methyl-d2)naphthalene-1,4-dione]",< 50,< 50,–,–,–
"CC1=C(Cc2ccc(C(F)(F)F)c(C#N)n2)C(=O)c2c(F)cc(F)cc2C1=O [Example 75, 6-((6,8-difluoro-3-methyl-1,4-dioxo-1,4-dihydronaphthalen-2-yl)methyl)-3-(trifluoromethyl)picolinonitrile]",< 50,< 50,–,–,–
"[2H]C([2H])([2H])C1=C(Cc2ccc(C(F)(F)F)c(C#N)n2)C(=O)c2cc(F)cc(F)c2C1=O [Example 71, 6-((5,7-difluoro-3-(methyl-d3)-1,4-dioxo-1,4-dihydronaphthalen-2-yl)methyl)-3-(trifluoromethyl)picolinonitrile]",< 50,< 50,–,–,–
"CCCC1=C(Cc2ccc(C(F)(F)F)c(C#N)n2)C(=O)c2cc(F)cc(F)c2C1=O [Example 82, 6-((5,7-difluoro-1,4-dioxo-3-propyl-1,4-dihydronaphthalen-2-yl)methyl)-3-(trifluoromethyl)picolinonitrile]",< 50,< 50,–,–,–
"CC1=C(Cc2ccc(F)cn2)C(=O)c2ccccc2C1=O [Example 6, 2-((5-fluoropyridin-2-yl)methyl)-3-methylnaphthalene-1,4-dione]",< 50,< 50,< 50,–,–
"CC1=C(Cc2ccc(C(F)F)cn2)C(=O)c2ccccc2C1=O [Example 20, 2-((5-(difluoromethyl)pyridin-2-yl)methyl)-3-methylnaphthalene-1,4-dione]",< 50,< 50,< 50,–,–
"CC1=C(Cc2ccc(C(F)(F)F)cn2)C(=O)c2c(F)cccc2C1=O [Example 51, 5-fluoro-2-methyl-3-((5-(trifluoromethyl)pyridin-2-yl)methyl)naphthalene-1,4-dione]",< 50,< 50,< 50,–,–
"CC1=C(Cc2ccc(C(F)(F)F)cn2)C(=O)c2c(F)ccc(F)c2C1=O [Example 52, 5,8-difluoro-2-methyl-3-((5-(trifluoromethyl)pyridin-2-yl)methyl)naphthalene-1,4-dione]",< 50,< 50,< 50,–,–
"CC1=C(Cc2ccc(F)cn2)C(=O)c2cc(F)ccc2C1=O [Example 47, 6-fluoro-3-((5-fluoropyridin-2-yl)methyl)-2-methylnaphthalene-1,4-dione]",< 50,–,< 50,–,–
"CC1=C(Cc2ccc(C(F)(F)F)cn2)C(=O)c2cc(F)cc(F)c2C1=O [Example 49, 5,7-difluoro-3-methyl-2-((5-(trifluoromethyl)pyridin-2-yl)methyl)naphthalene-1,4-dione]",< 50,–,< 50,–,–
"CC1=C(Cc2ccc(F)cn2)C(=O)c2ccc(F)cc2C1=O [Example 48, 6-fluoro-2-((5-fluoropyridin-2-yl)methyl)-3-methylnaphthalene-1,4-dione]",< 50,< 50,< 50,–,–
"CC1=C(Cc2ccc(C(F)(F)F)c(C#N)n2)C(=O)c2ccccc2C1=O [Example 77, 6-((3-methyl-1,4-dioxo-1,4-dihydronaphthalen-2-yl)methyl)-3-(trifluoromethyl)picolinonitrile]",< 50,< 50,–,–,–
"CC1=C(Cc2ccc(C(F)(F)F)cn2)C(=O)c2c(F)cc(F)cc2C1=O [Example 50, 5,7-difluoro-2-methyl-3-((5-(trifluoromethyl)pyridin-2-yl)methyl)naphthalene-1,4-dione]",< 50,–,< 50,–,–
"CC1=C(Cc2ccc(C(F)(F)F)cn2)C(=O)c2cc(C)c(C)cc2C1=O [Example 43, 2,6,7-trimethyl-3-((5-(trifluoromethyl)pyridin-2-yl)methyl)naphthalene-1,4-dione]",250 to 1000,–,50 to 250,–,–
"[2H]C([2H])([2H])C1=C(Cc2ccc(C(F)(F)F)c(C#N)n2)C(=O)c2ccc(F)cc2C1=O [Example 73, 6-((6-fluoro-3-(methyl-d3)-1,4-dioxo-1,4-dihydronaphthalen-2-yl)methyl)-3-(trifluoromethyl)picolinonitrile]",< 50,< 50,–,–,–
"[2H]C([2H])([2H])C1=C(Cc2ccc(C(F)(F)F)cn2)C(=O)c2ccccc2C1=O [Example 54, 2-(methyl-d3)-3-((5-(trifluoromethyl)pyridin-2-yl)methyl)naphthalene-1,4-dione]",< 50,–,< 50,–,–
"CCC1=C(Cc2ccc(F)cn2)C(=O)c2c(F)ccc(F)c2C1=O [Example 88, 2-ethyl-5,8-difluoro-3-((5-fluoropyridin-2-yl)methyl)naphthalene-1,4-dione]",< 50,< 50,–,–,–
"O=C1C(Cc2ccc(F)cn2)=C(C2CC2)C(=O)c2c(F)ccc(F)c21 [Example 87, 2-cyclopropyl-5,8-difluoro-3-((5-fluoropyridin-2-yl)methyl)naphthalene-1,4-dione]",< 50,< 50,–,–,–
"CCC1=C(Cc2ccc(C(F)(F)F)cn2)C(=O)c2cc(F)cc(F)c2C1=O [Example 56, 3-ethyl-5,7-difluoro-2-((5-(trifluoromethyl)pyridin-2-yl)methyl)naphthalene-1,4-dione]",–,–,–,< 50,< 50
"CC1=C(Cc2ccc(C(F)(F)F)cn2)C(=O)c2cccc(Cl)c2C1=O [Example 60, 5-chloro-3-methyl-2-[[5-(trifluoromethyl)-2-pyridyl]methyl]naphthalene-1,4-dione]",< 50,< 50,–,–,–
"[2H]C([2H])([2H])C1=C(Cc2ccc(C(F)(F)F)c(C#N)n2)C(=O)c2c(F)ccc(F)c2C1=O [Example 76, 6-((5,8-difluoro-3-(methyl-d3)-1,4-dioxo-1,4-dihydronaphthalen-2-yl)methyl)-3-(trifluoromethyl)picolinonitrile]",< 50,< 50,–,–,–
"[2H]C([2H])([2H])C1=C(Cc2ccc(C(F)(F)F)c(C#N)n2)C(=O)c2c(F)cc(F)cc2C1=O [Example 72, 6-((6,8-difluoro-3-(methyl-d3)-1,4-dioxo-1,4-dihydronaphthalen-2-yl)methyl)-3-(trifluoromethyl)picolinonitrile]",< 50,< 50,–,–,–
"CC1=C(Cc2ccc(C(F)(F)F)c(C#N)n2)C(=O)c2cc(F)cc(F)c2C1=O [Example 74, 6-((5,7-difluoro-3-methyl-1,4-dioxo-1,4-dihydronaphthalen-2-yl)methyl)-3-(trifluoromethyl)picolinonitrile]",50 to 250,< 50,–,–,–
